System: normal human melanocytes
Experiment: Melanin content of normal human melanocytes, normalized to proliferation (MTS)
Assay type: cell-based
Conditions: 5 day treatment, normal human melanocytes from neonatal skin
Method: Normal human melanocytes from neonatal skin were used for the assay. For the primary screening, the cells were seeded simultaneously into 96-well plates and 24-well plates appropriately according to the surface area of the wells, and treated with the test compound for 5 days. The addition of the compound to the plates was done using a Robot to ensure accuracy (same amount in each well). At the end of 5 day treatment, the cells in the 96-well plate were treated with MTS solution and the plate was read at 490 nm to determine the effect of the compounds on the growth of the cells. The cells in the 24-well plates were rinsed with PBS, and then lysed with 1N NaOH, and the absorbence of alkali soluble melanin was measured at 405 nm.
The data from the 96-well plate was analyzed to determine the effect of each compound on the proliferation of the cells, and the data from the 24-well plate was used to determine the effect of the compound on the melanin content of the cells. The melanin content was then normalized to the proliferation of the cells.

C=C(c1ccc(C(=O)O)cc1)c1ccc2c(c1)C(C)(C)CCC2(C)C [CD No. 2771, 4-[1-(5,6.7,8-tetrahydro-5,5,8,8-tetramethyl-2-naphthyl)ethenyl]benzoic acid]
Maximum Increase in Melanin Content (Normalized) (at 2 μM): 250% at 2 μM

Cc1cc2c(cc1-c1cccc(C=CC(=O)O)c1)C(C)(C)CCC2(C)C [CD No. 2915, 3-[3-(3,5,5,8,8-pentamethyl-5.6,7.8-tetrahydro-naphthalen-2-yl)-phenyl]-acrylic acid]
Maximum Increase in Melanin Content (Normalized) (at 0.1 μM): 165% at 0.1 μM

CC(=CC(=O)O)c1cccc(-c2cc3c(cc2C)C(C)(C)CCC3(C)C)c1 [CD No. 3206, 3-[3-(3,5.5,8,8-pentamethyl-5,6,7,8-tetrahydro-naphthalen-2-yl)-phenyl]-but-2-enoic acid]
Maximum Increase in Melanin Content (Normalized) (at 0.5 μM): 198% at 0.5 μM

— patent publication US20030113281A1, “Assay for identification of compounds that promote melanin production and retinoid-like compounds identified by said assay” (Galderma Research & Development, S.N.C., priority 1998, published 2003)
